# *1 amine or outer side, *2 acyl side, *3 side chain or, on linkers, in order; H or OH if unused. Where a SMILES comes first, the peptide text is derived from it. Bridges are numbered along the chain shown (N, C = ends). [ ]: non-standard residue; d: D form. The star is where a group is joined. hPhe(3-Cl-4-CF3) = N[C@@H](CCc1ccc(C(F)(F)F)c(Cl)c1)C(=O)O; NPrPhe(4-CF3) = CCCN[C@@H](Cc1ccc(C(F)(F)F)cc1)C(=O)O; NMeAbu(4,4,4-F3) = CN[C@@H](CC(F)(F)F)C(=O)O; X15 = CCCN([C@@H](Cc1ccccc1)C(=O)[*:2])[*:1]; NMePhe(4-F) = CN[C@@H](Cc1ccc(F)cc1)C(=O)O; NMeGly(cPent) = CN[C@H](C(=O)O)C1CCCC1; Pro(4,4-F2) = O=C(O)[C@@H]1CC(F)(F)CN1; NEtPhe = CCN[C@@H](Cc1ccccc1)C(=O)O; NMeGly(cBu) = CN[C@H](C(=O)O)C1CCC1; NMeD = CN[C@@H](CC(=O)O)C(=O)O; NMeL = CN[C@@H](CC(C)C)C(=O)O; NMeNva = CCC[C@H](NC)C(=O)O; NMeAbu = CC[C@H](NC)C(=O)O; Morpholide = C1CN(*)CCO1; NMeA = CN[C@@H](C)C(=O)O; Ac5c = NC1(C(=O)O)CCCC1; Aze = O=C(O)[C@@H]1CCN1; Ac4c = NC1(C(=O)O)CCC1; Sar = CNCC(=O)O
# Key:
# [1] = test system: human lung cancer strain NCI-H441; format: cell-based
# Summary of the method: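 Signal came from […] measured per well once the reagent was added. Beforehand, cells were cultured at 37°C and 5% carbon dioxide on a compound series serially diluted in dimethyl sulfoxide.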
# [2] = target: HRAS wild-type protein (Homo sapiens, UniProt P01112); experiment: Binding to HRAS by surface plasmon resonance (SPR), KD and KD ratio to KRAS; conditions: ratio of KD for HRAS wild-type protein to KD for KRAS
# HRAS wild-type protein, sequence (P01112 whole entry): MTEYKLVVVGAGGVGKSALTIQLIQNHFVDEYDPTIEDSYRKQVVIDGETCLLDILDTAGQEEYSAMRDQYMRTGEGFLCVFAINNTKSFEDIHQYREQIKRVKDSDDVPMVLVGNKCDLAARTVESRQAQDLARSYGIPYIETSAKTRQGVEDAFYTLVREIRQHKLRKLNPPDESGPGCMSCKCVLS
# Summary of the method: (§1)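 Recombinant RAS proteins bearing a biotinylated Avi tag and loaded with GDP served as the captured ligand, recaptured fresh every cycle. Binding responses were referenced to an uncoated surface and a buffer-only blank cycle. Dissociation constants were obtained by 1:1 model fitting at 30°C.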
# [3] = target: GDP-bound NRAS wild-type protein (Homo sapiens, UniProt P01111); experiment: Binding to NRAS by surface plasmon resonance (SPR), KD and KD ratio to KRAS; conditions: ratio of KD for GDP-bound NRAS wild-type protein to KD for KRAS
# GDP-bound NRAS wild-type protein, sequence (P01111 whole entry): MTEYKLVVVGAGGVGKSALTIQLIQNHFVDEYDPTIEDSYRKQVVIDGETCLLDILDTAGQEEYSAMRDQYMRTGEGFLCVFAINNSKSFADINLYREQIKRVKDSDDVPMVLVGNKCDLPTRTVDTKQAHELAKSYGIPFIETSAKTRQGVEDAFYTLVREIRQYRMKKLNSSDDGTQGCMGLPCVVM
# Summary of the method: as §1
SMILES,IC50 [1] [nM],HRAS /KRAS [2],NRAS /KRAS [3]
"CCCN1C(=O)CN(C)C(=O)CN(C)C(=O)[C@H]([C@@H](C)CC)NC(=O)[C@H](C2CCC2)N(C)C(=O)C[C@@H](C(=O)N2CCOCC2)N(C)C(=O)[C@H](C2CCCC2)N(C)C(=O)C2(CCCC2)NC(=O)[C@@H]2CC(F)(F)CN2C(=O)[C@H](CCc2ccc(C(F)(F)F)c(Cl)c2)NC(=O)CN(C)C(=O)[C@@H]1Cc1ccc(C(F)(F)F)cc1 [PP0200] ([NMeGly(cBu)]I[Sar][Sar][NPrPhe(4-CF3)][Sar][hPhe(3-Cl-4-CF3)][Pro(4,4-F2)][Ac5c][NMeGly(cPent)][NMeD]-Morpholide; lactam N-11)",2.5,C (A compound having a KD ratio of 0.1 or more and less than 3 is denoted as C),C (A compound having a KD ratio of 0.1 or more and less than 3 is denoted as C)
"CCC[C@H]1C(=O)N[C@@H]([C@@H](C)CC)C(=O)N(C)CC(=O)N(C)CC(=O)N(CCC)[C@@H](Cc2ccc(C(F)(F)F)cc2)C(=O)N(C)CC(=O)N[C@@H](CCc2ccc(C(F)(F)F)c(Cl)c2)C(=O)N2CC(F)(F)C[C@H]2C(=O)NC2(CCCC2)C(=O)N(C)[C@@H](C2CCCC2)C(=O)N(C)[C@H](C(=O)N2CCOCC2)CC(=O)N1C [PP0201] ([NMeNva]I[Sar][Sar][NPrPhe(4-CF3)][Sar][hPhe(3-Cl-4-CF3)][Pro(4,4-F2)][Ac5c][NMeGly(cPent)][NMeD]-Morpholide; lactam N-11)",3.4,C (A compound having a KD ratio of 0.1 or more and less than 3 is denoted as C),B (a compound having 3 or more and less than 10 is denoted as B)
"CCCN1C(=O)CN(C)C(=O)CN(C)C(=O)[C@H]([C@@H](C)CC)NC(=O)[C@H](CC)N(C)C(=O)C[C@@H](C(=O)N2CCOCC2)N(C)C(=O)[C@H](C2CCCC2)N(C)C(=O)C2(CCCC2)NC(=O)[C@@H]2CC(F)(F)CN2C(=O)[C@H](CCc2ccc(C(F)(F)F)c(Cl)c2)NC(=O)CN(C)C(=O)[C@@H]1Cc1ccc(C(F)(F)F)cc1 [PP0202] ([NMeAbu]I[Sar][Sar][NPrPhe(4-CF3)][Sar][hPhe(3-Cl-4-CF3)][Pro(4,4-F2)][Ac5c][NMeGly(cPent)][NMeD]-Morpholide; lactam N-11)",3.9,C (A compound having a KD ratio of 0.1 or more and less than 3 is denoted as C),B (a compound having 3 or more and less than 10 is denoted as B)
"CCCN1C(=O)[C@@H]2CCN2C(=O)[C@H](C)N(C)C(=O)[C@H]([C@@H](C)CC)NC(=O)[C@H](CC(F)(F)F)N(C)C(=O)C[C@@H](C(=O)N2CCOCC2)N(C)C(=O)[C@H](C2CCCC2)N(C)C(=O)C2(CCCC2)NC(=O)[C@@H]2CC(F)(F)CN2C(=O)[C@H](CCc2ccc(C(F)(F)F)c(Cl)c2)NC(=O)CN(C)C(=O)[C@@H]1Cc1ccc(C(F)(F)F)cc1 [PP0203] ([NMeAbu(4,4,4-F3)]I[NMeA][Aze][NPrPhe(4-CF3)][Sar][hPhe(3-Cl-4-CF3)][Pro(4,4-F2)][Ac5c][NMeGly(cPent)][NMeD]-Morpholide; lactam N-11)",2.8,C (A compound having a KD ratio of 0.1 or more and less than 3 is denoted as C),C (A compound having a KD ratio of 0.1 or more and less than 3 is denoted as C)
"CCCN1C(=O)CN(C)C(=O)CN(C)C(=O)[C@H]([C@@H](C)CC)NC(=O)[C@H](CC(C)C)N(C)C(=O)C[C@@H](C(=O)N2CCOCC2)N(C)C(=O)[C@H](C2CCCC2)N(C)C(=O)C2(CCC2)NC(=O)[C@@H]2CC(F)(F)CN2C(=O)[C@H](CCc2ccc(C(F)(F)F)c(Cl)c2)NC(=O)CN(C)C(=O)[C@@H]1Cc1ccc(C(F)(F)F)cc1 [PP0207] ([NMeL]I[Sar][Sar][NPrPhe(4-CF3)][Sar][hPhe(3-Cl-4-CF3)][Pro(4,4-F2)][Ac4c][NMeGly(cPent)][NMeD]-Morpholide; lactam N-11)",1.9,C (A compound having a KD ratio of 0.1 or more and less than 3 is denoted as C),B (a compound having 3 or more and less than 10 is denoted as B)
CC[C@H](C)[C@@H]1NC(=O)[C@H](CC(C)C)N(C)C(=O)C[C@@H](C(=O)N2CCOCC2)N(C)C(=O)[C@H](C2CCCC2)N(C)C(=O)C2(CCCC2)NC(=O)[C@@H]2CCCN2C(=O)[C@H](CCc2ccc(C(F)(F)F)c(Cl)c2)NC(=O)CN(C)C(=O)[C@H](Cc2ccccc2)N(CC)C(=O)CN(C)C(=O)CN(C)C1=O [PP0210] ([NMeL]I[Sar][Sar][NEtPhe][Sar][hPhe(3-Cl-4-CF3)]P[Ac5c][NMeGly(cPent)][NMeD]-Morpholide; lactam N-11),17.1,C (A compound having a KD ratio of 0.1 or more and less than 3 is denoted as C),C (A compound having a KD ratio of 0.1 or more and less than 3 is denoted as C)
CC[C@H](C)[C@@H]1NC(=O)[C@H](CC(C)C)N(C)C(=O)C[C@@H](C(=O)N2CCOCC2)N(C)C(=O)[C@H](C2CCCC2)N(C)C(=O)C2(CCCC2)NC(=O)[C@@H]2CCCN2C(=O)[C@H](CCc2ccc(C(F)(F)F)c(Cl)c2)NC(=O)CN(C)C(=O)[C@H](Cc2ccc(F)cc2)N(C)C(=O)CN(C)C(=O)CN(C)C1=O [PP0212] ([NMeL]I[Sar][Sar][NMePhe(4-F)][Sar][hPhe(3-Cl-4-CF3)]P[Ac5c][NMeGly(cPent)][NMeD]-Morpholide; lactam N-11),26.6,C (A compound having a KD ratio of 0.1 or more and less than 3 is denoted as C),C (A compound having a KD ratio of 0.1 or more and less than 3 is denoted as C)

# More lines, main results first:
IC50 [1] [nM],SMILES,HRAS /KRAS [2],NRAS /KRAS [3]
5.4,"CCCN1C(=O)[C@@H]2CCN2C(=O)[C@H](C)N(C)C(=O)[C@H]([C@@H](C)CC)NC(=O)[C@H](C2CCC2)N(C)C(=O)C[C@@H](C(=O)N2CCOCC2)N(C)C(=O)[C@H](C2CCCC2)N(C)C(=O)C2(CCCC2)NC(=O)[C@@H]2CC(F)(F)CN2C(=O)[C@H](CCc2ccc(C(F)(F)F)c(Cl)c2)NC(=O)CN(C)C(=O)[C@@H]1Cc1ccc(C(F)(F)F)cc1 [PP0204] ([NMeGly(cBu)]I[NMeA][Aze][NPrPhe(4-CF3)][Sar][hPhe(3-Cl-4-CF3)][Pro(4,4-F2)][Ac5c][NMeGly(cPent)][NMeD]-Morpholide; lactam N-11)",C (A compound having a KD ratio of 0.1 or more and less than 3 is denoted as C),C (A compound having a KD ratio of 0.1 or more and less than 3 is denoted as C)
4.6,"CCC[C@H]1C(=O)N[C@@H]([C@@H](C)CC)C(=O)N(C)[C@@H](C)C(=O)N2CC[C@H]2C(=O)N(CCC)[C@@H](Cc2ccc(C(F)(F)F)cc2)C(=O)N(C)CC(=O)N[C@@H](CCc2ccc(C(F)(F)F)c(Cl)c2)C(=O)N2CC(F)(F)C[C@H]2C(=O)NC2(CCCC2)C(=O)N(C)[C@@H](C2CCCC2)C(=O)N(C)[C@H](C(=O)N2CCOCC2)CC(=O)N1C [PP0205] ([NMeNva]I[NMeA][Aze][NPrPhe(4-CF3)][Sar][hPhe(3-Cl-4-CF3)][Pro(4,4-F2)][Ac5c][NMeGly(cPent)][NMeD]-Morpholide; lactam N-11)",C (A compound having a KD ratio of 0.1 or more and less than 3 is denoted as C),C (A compound having a KD ratio of 0.1 or more and less than 3 is denoted as C)
2.2,"CCCN1C(=O)[C@@H]2CCN2C(=O)[C@H](C)N(C)C(=O)[C@H]([C@@H](C)CC)NC(=O)[C@H](CC)N(C)C(=O)C[C@@H](C(=O)N2CCOCC2)N(C)C(=O)[C@H](C2CCCC2)N(C)C(=O)C2(CCCC2)NC(=O)[C@@H]2CC(F)(F)CN2C(=O)[C@H](CCc2ccc(C(F)(F)F)c(Cl)c2)NC(=O)CN(C)C(=O)[C@@H]1Cc1ccc(C(F)(F)F)cc1 [PP0206] ([NMeAbu]I[NMeA][Aze][NPrPhe(4-CF3)][Sar][hPhe(3-Cl-4-CF3)][Pro(4,4-F2)][Ac5c][NMeGly(cPent)][NMeD]-Morpholide; lactam N-11)",B (a compound having 3 or more and less than 10 is denoted as B),C (A compound having a KD ratio of 0.1 or more and less than 3 is denoted as C)
4.6,"CCCN1C(=O)[C@@H]2CCN2C(=O)[C@H](C)N(C)C(=O)[C@H]([C@@H](C)CC)NC(=O)[C@H](CC(C)C)N(C)C(=O)C[C@@H](C(=O)N2CCOCC2)N(C)C(=O)[C@H](C2CCCC2)N(C)C(=O)C2(CCC2)NC(=O)[C@@H]2CC(F)(F)CN2C(=O)[C@H](CCc2ccc(C(F)(F)F)c(Cl)c2)NC(=O)CN(C)C(=O)[C@@H]1Cc1ccc(C(F)(F)F)cc1 [PP0208] ([NMeL]I[NMeA][Aze][NPrPhe(4-CF3)][Sar][hPhe(3-Cl-4-CF3)][Pro(4,4-F2)][Ac4c][NMeGly(cPent)][NMeD]-Morpholide; lactam N-11)",C (A compound having a KD ratio of 0.1 or more and less than 3 is denoted as C),C (A compound having a KD ratio of 0.1 or more and less than 3 is denoted as C)
10.8,CCCN1C(=O)CN(C)C(=O)CN(C)C(=O)[C@H]([C@@H](C)CC)NC(=O)[C@H](CC(C)C)N(C)C(=O)C[C@@H](C(=O)N2CCOCC2)N(C)C(=O)[C@H](C2CCCC2)N(C)C(=O)C2(CCCC2)NC(=O)[C@@H]2CCCN2C(=O)[C@H](CCc2ccc(C(F)(F)F)c(Cl)c2)NC(=O)CN(C)C(=O)[C@@H]1Cc1ccccc1 [PP0211] ([NMeL]I[Sar][Sar][X15][Sar][hPhe(3-Cl-4-CF3)]P[Ac5c][NMeGly(cPent)][NMeD]-Morpholide; lactam N-11),C (A compound having a KD ratio of 0.1 or more and less than 3 is denoted as C),B (a compound having 3 or more and less than 10 is denoted as B)

# From EP4603105A1, “PHARMACEUTICAL COMPOSITION CONTAINING CYCLIC COMPOUND HAVING SELECTIVE KRAS INHIBITORY EFFECT AGAINST HRAS AND NRAS” (CHUGAI SEIYAKU KABUSHIKI KAISHA, priority 2022, dated 2024)
